The text below walks through data of US11034685B2, “Aminopyridine derivatives as TAM family kinase inhibitors” (SignalChem Lifesciences Corporation, priority 2013, dated 2021).

Common to all, as to format: biochemical
Assay [1] deals with T1, Recombinant human Tyro3 (455-end) (Homo sapiens, UniProt Q06418).
T1 construct: GST (N); made in house; host or cells: Sf9 insect cells (baculovirus)
T1 sequence (Q06418 455-890 limits assumed): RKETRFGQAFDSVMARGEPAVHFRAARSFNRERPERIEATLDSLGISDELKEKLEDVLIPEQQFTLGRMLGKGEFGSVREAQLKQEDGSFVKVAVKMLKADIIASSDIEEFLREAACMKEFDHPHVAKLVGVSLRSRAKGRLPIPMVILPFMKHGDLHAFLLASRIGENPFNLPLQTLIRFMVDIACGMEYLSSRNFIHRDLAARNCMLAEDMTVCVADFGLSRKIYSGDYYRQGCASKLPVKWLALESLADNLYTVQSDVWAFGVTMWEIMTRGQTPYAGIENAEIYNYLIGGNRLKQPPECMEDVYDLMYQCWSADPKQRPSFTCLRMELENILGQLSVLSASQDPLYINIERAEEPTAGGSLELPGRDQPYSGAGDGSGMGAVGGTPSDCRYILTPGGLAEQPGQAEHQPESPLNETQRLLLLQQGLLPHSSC
In words: Kinase enzymatic activity assay ([33P]-ATP phosphate transfer), Tyro3. The settings on record: inhibitory activity on Tyro3; class symbols. As for the experimental part: (§1) Preparation of Active Recombinant Kinase Proteins:
(§2) Recombinant human Tyro3 (455-end, the gene accession number NM_006293), human Axl (473-end, the gene accession number NM_021913) and human Mer (578-872, the gene accession number NM_006343) were independently expressed by baculovirus in Sf9 insect cells using an N-terminal GST tag. The recombinant proteins were stored at −70° C. in a medium containing 50 mM Tris-HCl, pH 7.5, 150 mM NaCl, 10 mM glutathione, 0.1 mM EDTA, 0.25 mM DTT, 0.1 mM PMSF and 25% glycerol. The recombinant proteins were aliquoted into smaller quantities after centrifugation to avoid repeated handling and multiple freeze/thaw cycles for the most favorable performance.
(§3) Preparation of Assay Reagents:
(§4) Kinase Assay Buffer: This buffer solution consisted of the following components: 25 mM MOPS, pH 7.2, 12.5 mM β-glycerol-phosphate, 25 mM MgCl2, 5 mM EGTA, 2 mM EDTA and DTT 0.25 mM which was added prior to use.
(§5) Kinase Dilution Buffer: Kinase Assay Buffer was diluted at a 1:4 ratio (5× dilution) with distilled water.
(§6) [^33P]-ATP assay cocktail: In a designated radioactive working area, a 250 μM [^33P]-ATP assay cocktail was prepared by the addition of the following components: 150 μL of 10 mM ATP stock solution, 100 μL [^33P]-ATP (1 mci/100 μL), 5.75 mL of kinase assay buffer. This solution was stored in 1 mL aliquots at −20 OC.
(§7) ATP stock solution (10 mM): The ATP stock solution was prepared by dissolving 55 mg of ATP in 10 mL of kinase assay buffer. It was stored in 200 μL aliquots at −20° C.
(§8) Active Kinase Stock Solution: The active recombinant kinase protein (0.1 μg/μL) was diluted with Kinase Dilution Buffer and the activity was assayed using a serial dilution method. The specific activity is expressed in nmoL/min/mg.
(§9) Substrates: poly(4:1 glu:tyr) is the substrate used for each kinase Tyro3, Axl and Mer: The peptide substrate was dissolved in water to give the final concentration of 1 mg/mL.
(§10) Test compound solution: Test compound was dissolved in DMSO to obtain a 10 mM solution. The assay solution was prepared by adding 5 μL of this solution to […] of 10% DMSO/water to obtain the final concentration of 50 μM.
(§11) The enzymatic activity of all three kinases was determined as follows. Using a 96-well plate, the wells were divided into three categories: Blank wells, […] and Test wells. In Test wells, 5 μL of the test compound solution and 5 μL of the substrate solution were added. In Control wells, 5 μL of 10% DMSO/water and 5 μL of the substrate solution were added. In Blank wells, 10 μL of 10% DMSO/water was added. To each well was added 10 μL of Active Kinase Stock Solution to make up the volume in each well to 20 μL. All test samples, controls and blanks were run in duplicate. The reaction was initiated by the addition of 5 μL of [^33P]-ATP assay cocktail, bringing the final volume up to 25 μL in every well. The mixture was incubated at room temperature for 30 minutes. The reaction was terminated by transferring 10 μL of the reaction mixture into a Millipore MultiScreen filter plate (cat. number MSPHN6B50). The filter plate was washed in a 1% phosphoric acid solution with constant gentle shaking for 15 minutes and this step was repeated once. After the plate was dried in air, scintillation fluid was added to each well and the radioactivity in each well in CPM was counted by a Microbeta TriLux. The corrected CPM in each test well was determined by subtracting the average value of Blank well values. Percentage of inhibition of the kinase enzymatic activity by the test compound was determined using the following formula: […]
(§12) The IC50 values were determined in a similar way following a serial dilution of the test compound. The percentage of inhibition at each concentration was calculated following the above formula. The IC50 was estimated from the curve of % Inhibition against Concentration in log unit using Prism 5, version 5.01.

For the next assay, the target named is T2, human Axl (473-end) (Homo sapiens, UniProt P30530).
T2 construct: GST (N); made in house; host or cells: Sf9 insect cells (baculovirus)
T2 sequence (P30530 473-894 limits assumed): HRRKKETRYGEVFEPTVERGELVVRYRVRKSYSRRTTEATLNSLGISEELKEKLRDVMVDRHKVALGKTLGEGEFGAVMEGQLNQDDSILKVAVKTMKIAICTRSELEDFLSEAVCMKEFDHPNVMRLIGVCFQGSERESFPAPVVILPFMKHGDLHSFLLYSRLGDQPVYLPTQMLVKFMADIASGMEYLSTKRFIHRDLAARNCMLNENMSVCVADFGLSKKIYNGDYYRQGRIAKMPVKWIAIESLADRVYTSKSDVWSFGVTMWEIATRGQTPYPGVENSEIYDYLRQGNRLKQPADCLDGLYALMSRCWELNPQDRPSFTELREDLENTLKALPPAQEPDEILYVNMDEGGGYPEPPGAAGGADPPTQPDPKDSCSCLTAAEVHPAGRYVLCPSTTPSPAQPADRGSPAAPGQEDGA
In words: Kinase enzymatic activity assay ([33P]-ATP phosphate transfer), Axl. The settings on record: inhibitory activity on Axl; class symbols. As for the experimental part:
as §1, §2, §3, §4, §5, §6, §7, §8, §9, §10, §11, §12

In the next assay the target is T3, human Mer (578-872) (Homo sapiens, UniProt Q12866).
T3 construct: GST (N); made in house; host or cells: Sf9 insect cells (baculovirus)
T3 sequence (Q12866 578-872): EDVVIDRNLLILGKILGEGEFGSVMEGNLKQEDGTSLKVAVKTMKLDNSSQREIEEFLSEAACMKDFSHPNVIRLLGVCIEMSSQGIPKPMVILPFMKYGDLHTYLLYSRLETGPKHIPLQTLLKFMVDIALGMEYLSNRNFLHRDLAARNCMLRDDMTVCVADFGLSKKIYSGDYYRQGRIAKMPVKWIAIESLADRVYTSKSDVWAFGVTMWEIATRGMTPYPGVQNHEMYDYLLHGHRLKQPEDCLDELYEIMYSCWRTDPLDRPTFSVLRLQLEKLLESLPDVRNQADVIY
In words: Kinase enzymatic activity assay ([33P]-ATP phosphate transfer), Mer. The settings on record: inhibitory activity on Mer; class symbols. As for the experimental part:
as §1, §2, §3, §4, §5, §6, §7, §8, §9, §10, §11, §12

As usually defined, the IC50 is the concentration that gives 50% inhibition. Regarding `Nc1ncc(-c2ccn(C3CCNCC3)c2)cc1-c1nnc(-c2c(Cl)cccc2Cl)o1` [3-(5-(2,6-dichlorophenyl)-1,3,4-oxadiazol-2-yl)-5-(1-(piperidin-4-yl)-1H-pyrrol-3-yl)pyridin-2-amine], the IC50 (in assay [1]; at human Axl (473-end); at human Mer (578-872)) was below 500 nM each time.
Turning to `Nc1ncc(-c2cnn(C3CCOCC3)c2)cc1-c1nnc(-c2c(Cl)cccc2Cl)o1` [3-(5-(2,6-dichlorophenyl)-1,3,4-oxadiazol-2-yl)-5-(1-(tetrahydro-2H-pyran-4-yl)-1H-pyrazol-4-yl)pyridin-2-amine], the IC50 (in assay [1]; at human Axl (473-end); against human Mer (578-872)) was below 500 nM each time.
Turning to `Nc1ncc(-c2cn[nH]c2)cc1-c1nnc(-c2c(Cl)cccc2Cl)o1` [3-(5-(2,6-dichlorophenyl)-1,3,4-oxadiazol-2-yl)-5-(1H-pyrazol-4-yl)pyridin-2-amine], the concentration for half-maximal inhibition (IC50) (in assay [1]; against human Axl (473-end); against human Mer (578-872)) was below 500 nM throughout.
For `CN1CCC(n2cc(-c3cnc(N)c(-c4ncc(-c5cccc(Cl)c5)o4)c3)cn2)CC1` [3-(5-(3-chlorophenyl)oxazol-2-yl)-5-(1-(1-methylpiperidin-4-yl)-1H-pyrazol-4-yl)pyridin-2-amine], the IC50 (in assay [1]; at human Axl (473-end); on human Mer (578-872)) was below 500 nM throughout.
In the case of `Nc1ncc(-c2cnn(C3CCNCC3)c2)cc1-c1ncc(-c2cccc(Cl)c2)o1` [3-(5-(3-chlorophenyl)oxazol-2-yl)-5-(1-(piperidin-4-yl)-1H-pyrazol-4-yl)pyridin-2-amine], the IC50 (in assay [1]; at human Axl (473-end); against human Mer (578-872)) was below 500 nM in each case.
Turning to `Nc1ncc(-c2cnn(C3CCCCC3)c2)cc1-c1ncc(-c2cccc(Cl)c2)o1` [3-(5-(3-chlorophenyl)oxazol-2-yl)-5-(1-cyclohexyl-1H-pyrazol-4-yl)pyridin-2-amine], the IC50 (in assay [1]; at human Axl (473-end); on human Mer (578-872)) was 1000 to 10000 nM throughout.
With `CC(C)(C)c1ccc(-c2nnc(-c3cc(-c4cnn(C5CCNCC5)c4)cnc3N)o2)cc1` [3-(5-(4-(tert-butyl)phenyl)-1,3,4-oxadiazol-2-yl)-5-(1-(piperidin-4-yl)-1H-pyrazol-4-yl)pyridin-2-amine], the IC50 (in assay [1]; against human Axl (473-end); on human Mer (578-872)) was below 500 nM in each case.
On to `CC(C)(C)c1ccc(-c2nnc(-c3cc(-c4cn[nH]c4)cnc3N)o2)cc1` [3-(5-(4-(tert-butyl)phenyl)-1,3,4-oxadiazol-2-yl)-5-(1H-pyrazol-4-yl)pyridin-2-amine], for which the values for the IC50 (in assay [1]; at human Axl (473-end); on human Mer (578-872)) were above 10000 nM, 1000 to 10000 nM and above 10000 nM, respectively.
`CN1CCC(n2cc(-c3cnc(N)c(-c4ncc(-c5ccc(Cl)cc5)o4)c3)cn2)CC1` [3-(5-(4-chlorophenyl)oxazol-2-yl)-5-(1-(1-methylpiperidin-4-yl)-1H-pyrazol-4-yl)pyridin-2-amine]: the IC50 (in assay [1]; at human Axl (473-end); against human Mer (578-872)) was below 500 nM throughout.
In the case of `Nc1ncc(-c2cnn(C3CCNCC3)c2)cc1-c1ncc(-c2ccc(Cl)cc2)o1` [3-(5-(4-chlorophenyl)oxazol-2-yl)-5-(1-(piperidin-4-yl)-1H-pyrazol-4-yl)pyridin-2-amine], the IC50 (in assay [1]; on human Axl (473-end); on human Mer (578-872)) was below 500 nM in each case.
Regarding `Nc1ncc(-c2cnn(C3CCCCC3)c2)cc1-c1ncc(-c2ccc(Cl)cc2)o1` [3-(5-(4-chlorophenyl)oxazol-2-yl)-5-(1-cyclohexyl-1H-pyrazol-4-yl)pyridin-2-amine], the half-inhibitory concentration (IC50) (in assay [1]; at human Axl (473-end); at human Mer (578-872)) was above 10000 nM each time.
Regarding `Nc1ncc(-c2cnn(C3CCNCC3)c2)cc1-c1nnc(-c2ccc(F)cc2)o1` [3-(5-(4-fluorophenyl)-1,3,4-oxadiazol-2-yl)-5-(1-(piperidin-4-yl)-1H-pyrazol-4-yl)pyridin-2-amine], the IC50 (in assay [1]; at human Axl (473-end); at human Mer (578-872)) was below 500 nM each time.
With `Nc1ncc(-c2cn[nH]c2)cc1-c1nnc(-c2ccc(F)cc2)o1` [3-(5-(4-fluorophenyl)-1,3,4-oxadiazol-2-yl)-5-(1H-pyrazol-4-yl)pyridin-2-amine], the values for the 50% inhibitory concentration (IC50) (in assay [1]; against human Axl (473-end); against human Mer (578-872)) were below 500 nM, below 500 nM and 500 to 1000 nM, respectively.
As for `Nc1ncc(-c2cnn(C3CCNCC3)c2)cc1-c1nnc(CC2CC2)o1` [3-(5-(cyclopropylmethyl)-1,3,4-oxadiazol-2-yl)-5-(1-(piperidin-4-yl)-1H-pyrazol-4-yl)pyridin-2-amine], the IC50 (in assay [1]; on human Axl (473-end); against human Mer (578-872)) was below 500 nM in each case.
Take `Nc1ncc(-c2cnn(C3CCNCC3)c2)cc1-c1nnc(Cc2ccccc2)o1` [3-(5-benzyl-1,3,4-oxadiazol-2-yl)-5-(1-(piperidin-4-yl)-1H-pyrazol-4-yl)pyridin-2-amine]: the IC50 (in assay [1]; on human Axl (473-end); at human Mer (578-872)) was below 500 nM each time.
As to `Nc1ncc(-c2cnn(C3CCNCC3)c2)cc1-c1noc(-c2ccccc2)n1` [3-(5-phenyl-1,2,4-oxadiazol-3-yl)-5-(1-(piperidin-4-yl)-1H-pyrazol-4-yl)pyridin-2-amine], the 50% inhibitory concentration (IC50) (in assay [1]; against human Axl (473-end); at human Mer (578-872)) was below 500 nM in each case.
